Test results reported in patent publication EP0523356B1, “Burst-test” (Orpegen Medizinisch-Molekularbiologische …, priority 1991, dated 1993).

Test system: Granulozyten
Test: Oxidative burst test in heparinised whole blood (dihydrorhodamine 123, flow cytometry)
Type: cell-based, menschlichen
Conditions: Erwartungswerte, 10 + 10 Minuten Inkubation at 37°C, heparinised whole blood 100 µl
Experimental: Frisch entnommenes, heparinisiertes Vollblut wird gemixt (Vortex) und auf dem Boden eines 5 ml-Röhrchens aliquotiert, wobei pro Ansatz 100 µl verwendet werden. Durch EDTA oder Citrat stabilisiertes Vollblut ist für das Verfahren nicht sonderlich geeignet. Die Blutproben werden vor der Zugabe der Bakterien ca. 15 Minuten im Eiswasserbad inkubiert, um auf 0°C abgekühlt zu sein.
Die vorgekühlten E.coli-Bakterien (1 x 10^9 pro ml) werden gut gemixt (Vortex) und 20 µl pro Ansatz zum Vollblut pipettiert ("high control", Röhrchen 1). Gegebenenfalls können 20 µl N-Formyl-Met-Leu-Phe-Gebrauchslösung als "low control" in ein weiteres Röhrchen (Röhrchen 2) gegeben werden (Endkonzentration 10^-6 mol/l). 20 µl Waschlösung (phosphatgepufferte Salzlösung ohne Calcium^2+ und Magnesium^2+ mit 0,02 % EDTA) werden als Negativkontrolle in ein drittes Röhrchen (Röhrchen 3) gegeben.
Alle Röhrchen werden nochmals gemixt (Vortex) und 10 Minuten lang bei 37°C im Wasserbad unter starkem Schütteln inkubiert (bei einer kinetischen Messung können auch längere Inkubationszeiten erforderlich sein).
Nach 10 Minuten erfolgt die Zugabe von 20 µl frisch angesetzter Substratlösung und Mischen (Vortex) (Endkonzentration 0,2 µg Dihydrorhodamin 123 auf 100 µl Körperflüssigkeit). […]

SMILES: CSCC[C@H](NC=O)C(=O)N[C@@H](CC(C)C)C(=O)N[C@@H](Cc1ccccc1)C(=O)O [N-Formyl-Met-Leu-Phe]
- mittlere Fluoreszenzintensität (4 Dekaden, 1024 Kanäle) (green fluorescence (FL1) of the oxidising cells, stimulant: 20 µl E.coli 1 x 10^9 pro ml or N-Formyl-Met-Leu-Phe Endkonzentration 10^-6 mol/l): 10-100
- % oxidierende Granulozyten (stimulant: 20 µl E.coli 1 x 10^9 pro ml or N-Formyl-Met-Leu-Phe Endkonzentration 10^-6 mol/l6 mol/l): 1-5%
